Test results reported in patent US6077872A (priority 1998, dated 2000).
“Also recorded” adds a separate entry of the source. Where two headings read alike, the source gives them in different places.

Key:
[1] = tested on: castrated male rats with osteoporosis; settings: for length of femur: model 3.26 ± 0.09; for ash weight of femur: model 187.5 ± 18.0; for calcium content of femur: model 245.1 ± 25.7; for dry weight of femur: model 360.0 ± 32.1; for wet weight of femur: model 638.3 ± 57.6
Procedure: (§1) After pulled off soft tissue, the right femur was dried for 5 hours in oven at the temperature of 120° C. until its weight kept a constant (dry weight), then the product was baked for 6 hours in muffle furnace at the temperature of 800° C. until the weight of the product kept a constant which was the ash weight, namely the total amount of inorganic salts. After part of the ash was resolved in dilute hydrochloride, the calcium content of ash was measured by the method of EDTA titration. All data was expressed as X±SD(n). The significance of differences between groups were assessed using the "T-test" method of two groups of small specimen.
In this test, the measuring methods for serum Ca, P, AKP levels, the bone mineral density, the length of femur, wet weight, dry weight, ash weight, the calcium content and the biomechanics of femur were all the same as in test II.

in vivo = settings: dog, po, 200 mg/kg
[2] = tested on: castrated male rats with osteoporosis; settings: for bone mineral density F50: model-control 0.235 ± 0.022; for bone mineral density F20: model-control 0.244 ± 0.025
From the text: (4) Measurement of bone mineral density.

preschool children = settings: for children having normal BMDs: groups I and II
Procedure: Seventy 3-6 years old healthy children whose bone mineral density were medium-lower at a central kindergarten in the suburban county of Beijing were selected as subjects, wherein there are 13 boys and 57 girls. All were healthy children who didn't have any metabolic diseases, liver or kidney diseases, bone wounds and abnormal diseases.
Double blind method was employed during the observation. Every person was administered calcium preparation or placebo twice a day in a dosage of 1 bag each time. […] Group IV, established as blank-control group, was administered placebo which didn't contain calcium. All the above oral preparations were provided by Beijing Juneng Asian-Pacific Life Science Research Center.
(1) Bone mineral density was measured before the test and 1.5 months and 3 months later after the administration of Ca supplements.
The bone mineral density of radius in non-preferred hand was measured at the 1/3 point near the farther-end by a Model BMD400 Single-Photon absorptiometry produced conjointly by Institute of Atomic Energy, Ministry of Nuclear Industry, China and Institute of Broadcasting, Beijing, to obtain mean mineral bone density (BMD, g/cm^2). Each point was scanned twice with a scanning speed of 0.5 mm/sec.
All data was analyzed with a SAS statistical software package.

[3] = tested on: ovariectomized rats with osteoporosis; test: Test II: dry femur weight, ash weight and calcium content in ovariectomized rats; settings: for ash weight: model-control 282.3 ± 30.5; for calcium content: model-control 341.9 ± 43.9; for dry femur weight: model-control 493.4 ± 28.1
Procedure: (§2) Female rats at the age of 3 months were excised of bilateral ovaries under sterilized condition, and were then fed low-calcium diet and offered with deionized water for 75 days, thus made an osteoporosis model.
Female 3-month-aged rats which had been excised of bilateral ovaries under sterilized condition were fed for a week until their wound was cured. Seventy healthy rats were selected and divided randomly into five groups of 14 rats. […] Group 1-5 were administered one time per day and 6 times per week and were also fed low-calcium diet and de-ionized water. The test period was 75 days. […] The bilateral femurs of rats were stripped off and stored in refrigerator. […] The right femur was stored for analysis of Ca content in femur.
as §1

[4] = tested on: ovariectomized rats with osteoporosis; settings: for Y (flexibility, tenacity): model-control 4.0 ± 1.1; for P (maximum of force at yielding point, femur strength): model-control 6.7 ± 1.2; for S (work to yield or break femur): model-control 11.3 ± 4.7
Procedure: as §2
Seventy healthy rats were selected and divided randomly into five groups of 14 rats. […] Group 1-5 were administered one time per day and 6 times per week and were also fed low-calcium diet and de-ionized water. The test period was 75 days. When the test was finished, rats were killed by bleeding from bilateral thigh arteries, the separated serum was used for measurement of biochemical parameters such as Ca, P, and AKP and Tr-ACP levels in serum. The bilateral femurs of rats were stripped off and stored in refrigerator. After the measurement of the bone mineral density, the left femur was stored for analysis of biomechanical characteristics. The right femur was stored for analysis of Ca content in femur.
Three-point bending test was done on the fresh femur iced in refrigerator with a Model WD-1 Electron Universal Test Machine under the following conditions: a span of 2.5 cm, a 25 kg sensor (1/50), a speed of 2 mm/minute. The function of load versus flexibility was recorded by a finction recorder, wherein P represented the maximum of force at yielding point, Y was flexibility indicating the tenacity of materials. K, as the rate of slope, was a rigidity parameter of materials and was associated with the degree of calcification in bone mechanics. S stood for the work to yield or break femur.

rickets-babies = settings: for craniomalacia, babies with symptom after the beginning of test: before test 3 (threonate), 4 (carbonate); for pillow-bald, babies with symptom after the beginning of test: before test 9 (threonate), 9 (carbonate); for night-sweat, babies with symptom after the beginning of test: before test 12 (threonate), 13 (carbonate)
Procedure: Fourty rickets-babies at the age of 3-10 months were randomly divided into 2 groups of 20 babies each. […] Test group II, namely the calcium carbonate group, were administered orally calcium carbonate twice a day in a dosage of one bag each time. Each bag of the two kind of calcium preparations contained the same amount of element calcium, namely 150 mg element calcium.
(1) Clinic symptoms mainly included the normal symptoms of rickets-babies such as night-sweat, pillow-bald, craniomalacia, etc.

[5] = tested on: castrated male rats with osteoporosis; settings: for serum Ca: model 1.80 ± 0.37; for serum P: model 2.03 ± 0.48; for AKP level in serum (in Bessey-Loury unit): model 96.7 ± 26.4
Procedure: Serum Ca, P and AKP were measured by a 4010 Automatic Biochemical Analyzer. Serum Ca was determined by calorimetric method using methylthymol blue. Serum P was determined by Mono-Reagent Method. Alkaline phosphatase was determined by method of disodium p-nitrophenylphosphonate (AKP) The tartaric-resistant acidic phosphatase (Tr-ACP) mineral was determined by Piedra procedure. All above reagent-box were available from the Clinical Chemicals Sub-plant of Beijing Chemical Plant.
The pure synthetic low-calcium diet and apparatus used in this test were the same as in test II.

[6] = 2.31 g/kg/d (300 mg calcium; Caltrate-D 0.65 g/kg/d)

O=C(O)[C@H](O)[C@@H](O)CO [calcium L-threonate]
length of femur ([1]; 0.76 g/kg/d): 3.34 ± 0.05 cm
ash weight of femur ([1]; 0.76 g/kg/d): 233.1 ± 19.76 mg
calcium content of femur ([1]; 0.76 g/kg/d): 267.0
dry weight of femur ([1]; 0.76 g/kg/d): 416.7 ± 29.7 g
wet weight of femur ([1]; 0.76 g/kg/d): 688.4 ± 47.4 g
length of femur ([1]; 1.54 g/kg/d): 3.34 ± 0.08 cm
ash weight of femur ([1]; 1.54 g/kg/d): 269.66 ± 23.4 mg
calcium content of femur ([1]; 1.54 g/kg/d): 268.2
dry weight of femur ([1]; 1.54 g/kg/d): 458.1 ± 39.1 g
wet weight of femur ([1]; 1.54 g/kg/d): 720.2 ± 69.7 g
length of femur [1, 6]: 3.35 ± 0.09 cm
ash weight of femur [1, 6]: 278.2 ± 31.8 mg
calcium content of femur [1, 6]: 266.7
dry weight of femur [1, 6]: 473.4 ± 57.2 g
wet weight of femur [1, 6]: 747.3 ± 95.2 g
femur length, weights and calcium content (in words) ([1]; rat, in vivo): markedly higher femur length, wet weight, dry weight, ash weight and calcium content than those of the model group rats
Tmax (in vivo): 1.21 h
concentration at 0.5 h (in vivo): 23100 ± 2680 ng/mL
concentration at 1 h (in vivo): 35900 ± 4410 ng/mL
concentration at 2 h (in vivo): 74040 ± 500 ng/mL
concentration at 3 h (in vivo): 46000 ng/mL
concentration at 4 h (in vivo): 17200 ng/mL
concentration at 6 h (in vivo): 9990 ng/mL
concentration at 8 h (in vivo): 4660 ng/mL
concentration at 12 h (in vivo): 2800 ng/mL
concentration at 16 h (in vivo): 4300 ng/mL
concentration at 24 h (in vivo): 3990 ng/mL
half-life (in vivo): 3.57 h
bone mineral density F50 ([2]; 100 mg element calcium/kg/d): 0.255 ± 0.025 BMC/BW
bone mineral density F20 ([2]; 100 mg element calcium/kg/d): 0.297 ± 0.037 BMC/BW
bone mineral density F50 ([2]; 200 mg element calcium/kg/d): 0.269 ± 0.019 BMC/BW
bone mineral density F20 ([2]; 200 mg element calcium/kg/d): 0.308 ± 0.020 BMC/BW
bone mineral density F50 ([2]; 300 mg element calcium/kg/d): 0.274 ± 0.018 BMC/BW
bone mineral density F20 ([2]; 300 mg element calcium/kg/d): 0.327 ± 0.033 BMC/BW
bone mineral density (preschool children; 2 bags/day of 150 mg element calcium, 1.5 month, before test 0.379 (threonate), 0.369 (carbonate)): 0.424 ± 0.038 g/cm^2
extent of BMDs' increase (preschool children; 2 bags/day of 150 mg element calcium, 1.5 months): 11.87%
bone mineral density (preschool children; 2 bags/day of 150 mg element calcium, 3 month, before test 0.379 (threonate), 0.369 (carbonate)): 0.467 ± 0.027 g/cm^2
bone mineral density (preschool children; 2 bags/day of 200 mg element calcium, 1.5 month, before test 0.362 ± 0.026): 0.414 ± 0.027 g/cm^2
extent of BMDs' increase (preschool children; 2 bags/day of 200 mg element calcium, 1.5 months): 14.36%
bone mineral density (preschool children; 2 bags/day of 200 mg element calcium, 3 month, before test 0.362 ± 0.026): 0.460 ± 0.020 g/cm^2
extent of BMDs' increase (preschool children; 2 bags/day of 200 mg element calcium, 3 months): 25.41%
fraction of children whose BMD reached the normal level (preschool children; after 3 months): about 2/3
children having normal BMDs (preschool children; 1.5 months): about 12%
children having normal BMDs (preschool children; 3 months): ~72%
ash weight ([3]; 100 mg element calcium/kg/d): 308.5 ± 11.4 mg
calcium content ([3]; 100 mg element calcium/kg/d): 387.8 ± 91.9 mg/g dry weight
dry femur weight ([3]; 100 mg element calcium/kg/d): 517 ± 21.8 mg
ash weight ([3]; 200 mg element calcium/kg/d): 325.3 ± 23.5 mg
calcium content ([3]; 200 mg element calcium/kg/d): 455.1 mg/g dry weight
dry femur weight ([3]; 200 mg element calcium/kg/d): 553.0 ± 38.1 mg
ash weight ([3]; 300 mg element calcium/kg/d): 332.4 ± 13.0 mg
calcium content ([3]; 300 mg element calcium/kg/d): 445.7 mg/g dry weight
dry femur weight ([3]; 300 mg element calcium/kg/d): 546.6 ± 22.8 mg
loss of bone matrix (in words) ([3]; rat, in vivo): retard the loss of bone matrix; also recorded: markedly control and inhibit the loss of bone matrix
K (rigidity parameter, calcified degree) ([4]; 100 mg element calcium/kg/d): 2.71 ± 0.36
Y (flexibility, tenacity) ([4]; 100 mg element calcium/kg/d): 4.1 ± 0.7
P (maximum of force at yielding point, femur strength) ([4]; 100 mg element calcium/kg/d): 7.9 ± 1.0
S (work to yield or break femur) ([4]; 100 mg element calcium/kg/d): 14.0
K (rigidity parameter, calcified degree) ([4]; 200 mg element calcium/kg/d): 2.75 ± 0.31
Y (flexibility, tenacity) ([4]; 200 mg element calcium/kg/d): 5.3 ± 1.4
P (maximum of force at yielding point, femur strength) ([4]; 200 mg element calcium/kg/d): 8.5 ± 0.8
Y (flexibility, tenacity) ([4]; 300 mg element calcium/kg/d): 5.9 ± 1.2
P (maximum of force at yielding point, femur strength) ([4]; 300 mg element calcium/kg/d): 9.6 ± 1.7
S (work to yield or break femur) ([4]; 300 mg element calcium/kg/d): 29.4
therapeutic effect on baby rickets (in words) (rickets-babies; 300 mg element calcium): significantly superior to that of calcium carbonate
total symptom improvement (rickets-babies; four weeks): 100%
craniomalacia, babies with symptom after the beginning of test (rickets-babies; four weeks): 0
pillow-bald, babies with symptom after the beginning of test (rickets-babies; four weeks): 0
night-sweat, babies with symptom after the beginning of test (rickets-babies; four weeks): 0
total symptom improvement (rickets-babies; two weeks): 62.5%
rickets-babies free of symptoms (rickets-babies; two weeks of administration (concluding text)): 62%
craniomalacia, babies with symptom after the beginning of test (rickets-babies; two weeks): 2
pillow-bald, babies with symptom after the beginning of test (rickets-babies; two weeks): 7
night-sweat, babies with symptom after the beginning of test (rickets-babies; two weeks): 0
serum Ca ([5]; 100 mg element calcium/kg/d): 1.97 ± 0.52 mmol/L
serum P ([5]; 100 mg element calcium/kg/d): 1.87 ± 0.39 mmol/L
AKP level in serum (in Bessey-Loury unit) ([5]; 100 mg element calcium/kg/d): 88.3 ± 13.7 U/L
serum Ca ([5]; 200 mg element calcium/kg/d): 2.20 ± 0.60 mmol/L
serum P ([5]; 200 mg element calcium/kg/d): 1.78 ± 0.55 mmol/L
AKP level in serum (in Bessey-Loury unit) ([5]; 200 mg element calcium/kg/d): 59.2 ± 12.0 U/L
serum Ca ([5]; 300 mg element calcium/kg/d): 2.17 ± 0.62 mmol/L
serum P ([5]; 300 mg element calcium/kg/d): 1.48 ± 0.55 mmol/L
AKP level in serum (in Bessey-Loury unit) ([5]; 300 mg element calcium/kg/d): 56.1 ± 6.2 U/L
serum calcium effect (in words) ([5]; rat, in vivo): significantly higher than that of model group
